Test results from US20240390508A1, “HUMAN TRANSFERRIN RECEPTOR BINDING PEPTIDE-DRUG CONJUGATE” (priority 2021, published 2024).

Molecular target: transferrin receptor (hTfR) (Homo sapiens, UniProt P02786)
Experiment: Intermolecular interaction evaluation test between transferrin receptor (hTfR) and peptide-nucleic acid conjugate using surface plasmon resonance (SPR)
Format: binding
Description: Intermolecular interaction evaluation test between transferrin receptor (hTfR) and peptide using surface plasmon resonance (SPR)
The various synthesized peptide-nucleic acid conjugates were tested for intermolecular interaction by surface plasmon resonance (SPR) of the peptide-nucleic acid conjugate with transferrin receptor (hTfR) using the method shown below. The specific test method is shown below.
NTA sensor chip (Global Life Science Technologies Japan Co., Ltd.) was inserted into Biacore T200 (Global Life Science Technologies Japan Co., Ltd.), prime operation was performed three times with running buffer: 10 mM HEPES pH 8.0 (Nacalai Tesque Co., Ltd.), 150 mM NaCl (Nacalai Tesque Co., Ltd.), 0.05% Tween 20 (Nacalai Tesque Co., Ltd.), 0.1% BSA (SIGMA-ALDRICH), and 1.0% DMSO (FUJIFILM Wako Pure Chemical Corporation), and equilibrated at a flow rate of 30 μL/min. 350 mM EDTA solution was reacted for 60 seconds at a flow rate of 10 μL/min, 0.5 mM NiCl2 solution (Kishida Chemical) was reacted for 60 seconds at a flow rate of 10 μL/min, and the NTA sensor chip was washed with 3 mM EDTA solution (Nacalai Tesque Co., Ltd.) for 60 seconds at a flow rate of 10 μL/min. After mixing 50 μL each of […] EDC solution (Global Life Science Technologies Japan Co., Ltd.) and […] NHS solution (Global Life Science Technologies Japan Co., Ltd.), the mixture was reacted for 420 seconds at a flow rate of 10 μL/min. 150 μL of a 0.5 μM hTfR solution was prepared by diluting with a running buffer and reacted for 300 seconds at a flow rate of 10 μL/min to immobilize hTfR on the NTA sensor chip. After immobilization, capping was performed by reacting with a 1.0 M ethanolamine aqueous solution (Global Life Science Technologies Japan Co., Ltd.) at a flow rate of 10 μL/min for 420 seconds. A peptide-nucleic acid conjugate solution adjusted to 10 mM in DMSO solution was diluted with running buffer to a final concentration of 10 μM peptide-nucleic acid conjugate solution, and 100 nM, 50 nM, 25 nM, 10 nM, 5 nM peptide-nucleic acid conjugate solutions were prepared. Using the aforementioned samples, the kinetics of the peptide against hTfR was obtained by SPR measurement.
The kinetics evaluation model was Single Cycle Kinetics, and curve fitting was performed using Biacore T200 Evaluation Software Version 3.0 (Global Life Science Technologies Japan Co., Ltd.). The obtained sensorgram was subjected to curve fitting using the least squares method, and the binding of the peptide-nucleic acid conjugate to hTfR was evaluated by determining the KD value.

Sequence of transferrin receptor (hTfR) (P02786 whole entry): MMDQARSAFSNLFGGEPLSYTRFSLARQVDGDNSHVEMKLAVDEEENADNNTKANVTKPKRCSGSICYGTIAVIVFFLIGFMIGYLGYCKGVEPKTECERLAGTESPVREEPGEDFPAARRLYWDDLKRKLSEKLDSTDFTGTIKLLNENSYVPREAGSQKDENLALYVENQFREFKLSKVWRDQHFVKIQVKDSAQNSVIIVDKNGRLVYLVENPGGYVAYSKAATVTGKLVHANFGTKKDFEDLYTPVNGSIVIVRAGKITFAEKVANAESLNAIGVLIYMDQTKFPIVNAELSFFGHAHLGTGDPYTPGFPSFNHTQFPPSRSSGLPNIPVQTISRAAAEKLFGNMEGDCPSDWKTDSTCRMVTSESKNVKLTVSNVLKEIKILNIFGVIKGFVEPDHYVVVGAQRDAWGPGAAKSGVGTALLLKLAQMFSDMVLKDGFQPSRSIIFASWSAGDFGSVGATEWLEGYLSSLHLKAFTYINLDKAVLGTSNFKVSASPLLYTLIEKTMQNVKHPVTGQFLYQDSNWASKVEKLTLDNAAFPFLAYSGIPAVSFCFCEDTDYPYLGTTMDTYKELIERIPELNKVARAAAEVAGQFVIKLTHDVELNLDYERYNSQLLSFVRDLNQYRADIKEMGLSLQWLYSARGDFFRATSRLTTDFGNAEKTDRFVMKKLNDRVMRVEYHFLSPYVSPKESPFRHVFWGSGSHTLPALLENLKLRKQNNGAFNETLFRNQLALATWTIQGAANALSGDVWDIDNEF

`CC[C@H](C)[C@@H]1NC(=O)[C@H](Cc2ccc(O)cc2)NC(=O)[C@H](Cc2ccc(O)cc2)NC(=O)[C@H](CC(N)=O)NC(=O)[C@H](Cc2c[nH]c3ccccc23)NC(=O)[C@H](C(C)C)NC(=O)[C@H](Cc2ccccc2)N(C)C(=O)[C@H](C(C)C)NC(=O)[C@H](C)NC(=O)CSC[C@@H](C(=O)NCC(=O)N[C@@H](CCCCn2nnc3c2CCC2C(CC3)C2COC(=O)NCC(=O)NCC(=O)NCC(=O)N[C@@H](CCC(=O)O)C(=O)N[C@@H](CCC(=O)O)C(=O)N[C@@H](CCC(=O)O)C(=O)N[C@@H](CO)C(=O)N[C@@H](CO)C(=O)N[C@@H](CSC2CC(=O)N(CCC(=O)N3C[C@@H](COP(=O)(N(C)C)N4C[C@@H](COP(=O)(N(C)C)N5C[C@@H](COP(=O)(N(C)C)N6C[C@@H](COP(=O)(N(C)C)N7C[C@@H](COP(=O)(N(C)C)N8C[C@@H](COP(=O)(N(C)C)N9C[C@@H](COP(=O)(N(C)C)N%10C[C@@H](COP(=O)(N(C)C)N%11C[C@@H](COP(=O)(N(C)C)N%12C[C@@H](COP(=O)(N(C)C)N%13C[C@@H](COP(=O)(N(C)C)N%14C[C@@H](COP(=O)(N(C)C)N%15C[C@@H](COP(=O)(N(C)C)N%16C[C@@H](COP(=O)(N(C)C)N%17C[C@@H](COP(=O)(N(C)C)N%18C[C@@H](COP(=O)(N(C)C)N%19C[C@@H](COP(=O)(N(C)C)N%20C[C@@H](COP(=O)(N(C)C)N%21C[C@@H](COP(=O)(N(C)C)N%22C[C@@H](COP(=O)(N(C)C)N%23C[C@@H](COP(=O)(N(C)C)N%24C[C@@H](COP(=O)(N(C)C)N%25C[C@@H](COP(=O)(N(C)C)N%26C[C@@H](COP(=O)(N(C)C)N%27C[C@@H](COP(=O)(N(C)C)N(C)CC(N)=O)O[C@@H](n%28cnc%29c(=O)[nH]c(N)nc%29%28)C%27)O[C@@H](n%27cc(C)c(=O)[nH]c%27=O)C%26)O[C@@H](n%26cc(C)c(=O)[nH]c%26=O)C%25)O[C@@H](n%25cnc%26c(=O)[nH]c(N)nc%26%25)C%24)O[C@@H](n%24ccc(N)nc%24=O)C%23)O[C@@H](n%23ccc(N)nc%23=O)C%22)O[C@@H](n%22cc(C)c(=O)[nH]c%22=O)C%21)O[C@@H](n%21ccc(N)nc%21=O)C%20)O[C@@H](n%20ccc(N)nc%20=O)C%19)O[C@@H](n%19cnc%20c(=O)[nH]c(N)nc%20%19)C%18)O[C@@H](n%18cnc%19c(=O)[nH]c(N)nc%19%18)C%17)O[C@@H](n%17cc(C)c(=O)[nH]c%17=O)C%16)O[C@@H](n%16cc(C)c(=O)[nH]c%16=O)C%15)O[C@@H](n%15ccc(N)nc%15=O)C%14)O[C@@H](n%14cc(C)c(=O)[nH]c%14=O)C%13)O[C@@H](n%13cnc%14c(=O)[nH]c(N)nc%14%13)C%12)O[C@@H](n%12cnc%13c(N)ncnc%13%12)C%11)O[C@@H](n%11cnc%12c(N)ncnc%12%11)C%10)O[C@@H](n%10cnc%11c(=O)[nH]c(N)nc%11%10)C9)O[C@@H](n9cnc%10c(=O)[nH]c(N)nc%109)C8)O[C@@H](n8cc(C)c(=O)[nH]c8=O)C7)O[C@@H](n7cnc8c(=O)[nH]c(N)nc87)C6)O[C@@H](n6cc(C)c(=O)[nH]c6=O)C5)O[C@@H](n5cc(C)c(=O)[nH]c5=O)C4)O[C@@H](n4ccc(N)nc4=O)C3)C2=O)C(N)=O)C(N)=O)NC(=O)[C@H](Cc2ccc(O)cc2)N(C)C(=O)[C@H](Cc2ccc(O)cc2)NC(=O)[C@H](CCCNC(=N)N)NC(=O)[C@H](CCCNC(=N)N)NC(=O)[C@H]([C@@H](C)CC)NC1=O` (stereo partly shown) [Example 58] gave a Kd of less than 0.1 µM.
